From paper PMC9823934, “New Class of Benzodiazepinone Derivatives as Pro-Death Agents Targeting BIR Domains in Cancer Cells” (Molecules, 2023) come the findings set out here.

Like-named read-outs stand apart in the source and are kept apart here.

Experiment [1] relates to MDA-MB-231 cells. As to the kind of experiment: Cell viability assay (PrestoBlue) in MDA-MB-231, with or without TNF. Conditions: 48 h treatment. Format: cell-based, human. The method, then:
MDA-MB-231 cells (human breast adenocarcinoma cell line) were grown in standard conditions (37 °C, 5% CO2) in RPMI medium supplemented with 10% serum, 1 mg·mL^−1 penicillin, 100 μg·mL^−1 streptomycin and 2 mM l-glutamine. Cell viability was evaluated by using PrestoBlue^TM Cell Viability Reagent (Thermo Fisher Scientific, Rodano, Italy). Resazurin, the active nontoxic and non-fluorescent ingredient, is continuously converted in resorufin, a red fluorescent compound, in viable cells. Cells were seeded on black-wall, clear bottom 96-well microplates at a density of 50,000 cells/well. After 24 h, cells were treated with the FC2 derivatives from 1.5 μM to 100 μM (vehicle, DMSO) in the absence or presence of TNF at the concentration of 50 ng/mL. After 48 h, the fluorescence was determined using a fluorescence plate reader (Tristar2 S, Berthold Technologies, Bad Wildbad, Germany) equipped with 560 nm excitation and 585 nm emission filters. At least five replicates were performed for each condition. The EC50, was calculated plotting the percentage of cell survival against the compound concentration (A) and fitting the data with: % survival=Tmax−TminA/A+EC50+Tmin where Tmax and Tmin are the maximum and minimum effect induced by the compounds. Analysis was performed with IgorPro 8.04 software (Lake Oswego, OR, USA).

For experiment [2], the target named is XIAP-BIR1 (Homo sapiens, UniProt P98170). As to the kind of experiment: Trp fluorescence binding assay on XIAP-BIR1.
Sequence of XIAP-BIR1 (P98170 10-99 limits assumed): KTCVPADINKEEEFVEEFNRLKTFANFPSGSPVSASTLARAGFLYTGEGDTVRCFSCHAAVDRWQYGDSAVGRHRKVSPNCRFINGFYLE
Protocol: (§1) The binding of FC2 derivatives to the BIR1 domains was assessed by in vitro fluorimetric assays.
(§2) The fluorescence intensity emitted by XIAP-BIR1 Trp73 or cIAP2-BIR1 Trp76 was measured by varying the concentration of the different ligands. The tests were performed with a spectral fluorimeter (Varian Cary Eclipse Fluorescence Spectrophotometer, Agilent Technologies), recording the fluorescence emission spectra between 300 and 400 nm (excitation 280 nm). XIAP-/ cIAP2-BIR1 protein samples were concentrated at 5 μM.
(§3) All the analyses were performed with GraFit version 5 (Erithacus Software Ltd., Horley, UK).
Experiment [3] deals with cIAP2-BIR1 (Homo sapiens, UniProt Q13489). As to the kind of experiment: Trp fluorescence binding assay on cIAP2-BIR1.
Sequence of cIAP2-BIR1 (Q13489 26-99 limits assumed): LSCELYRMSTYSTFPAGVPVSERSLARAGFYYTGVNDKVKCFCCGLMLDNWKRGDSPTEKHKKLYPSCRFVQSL
Protocol: as §1, §2, §3
Setting [4] is: Homo sapiens, MDA-MB-231, 48 h, MDA-MB-231, in combination with 50 ng/mL TNF, read-out: EC50 (+TNF).
Setting [5] is: Homo sapiens, MDA-MB-231, 48 h, MDA-MB-231, single agent, read-out: EC50.
The mark [6] stands for this setting: Homo sapiens, MDA-MB-231, in combination with 50 ng/mL TNF, read-out: EC50 (+TNF).
The mark [7] stands for this setting: Homo sapiens, MDA-MB-231, single agent, read-out: EC50.
Where [8] appears, read: read-out: Kd (XIAP-BIR1), Trp fluorescence titration, 23 °C, pH 8.0.
Where [9] appears, read: read-out: Kd (cIAP2-BIR1), Trp fluorescence titration, 23 °C, pH 8.0.

In general, EC50 refers to the concentration that produces a half-maximal response. For orientation: Kd means a measure of binding affinity in units of concentration. As for `O=C1CCCC2=C1C(c1ccc(Cl)cc1)Nc1ccc(C(=O)c3ccccc3)cc1N2` (centres unmarked) [4i], the values for the EC50 in experiment [1] (setting [4]) and in experiment [1] (setting [5]) were 22.2 ± 6.67 µM and 25.9 ± 7.03 µM, respectively. The Kd in experiment [2] and in experiment [3] was more than 50 µM in each case.

As for `O=C1CCCC2=C1C(c1c[nH]c3ccccc13)Nc1ccc(C(=O)c3ccccc3)cc1N2` (centres unmarked) [FC2, 7-benzoyl-11-(1H-indol-3-yl)-2,3,4,5,10,11-hexahydro-1H-dibenzo[b,e][1,4]diazepin-1-one], the results for the EC50 in experiment [1] (setting [6]) and in experiment [1] (setting [7]) were 9.08 ± 1.85 µM and 11.4 ± 2.08 µM, respectively.

Take `O=C1CCCC2=C1C(c1cccc([N+](=O)[O-])c1)Nc1ccc(C(=O)c3ccccc3)cc1N2` (centres unmarked) [4m]: the half-maximal effective concentration (EC50) in experiment [1] (setting [6]) turned out to be 3.82 ± 1.41 µM; in experiment [1] (setting [7]), 5.54 ± 1.03 µM. Besides, the Kd in experiment [3] came out at 20.5 ± 4 µM.

Consider `O=C1CCCC2=C1C(c1cccc(O)c1)Nc1ccc(C(=O)c3ccccc3)cc1N2` (centres unmarked) [4l], for which the EC50 turned out to be 16.1 ± 3.7 µM in experiment [1] (setting [4]) and 18.6 ± 2.56 µM in experiment [1] (setting [5]). The Kd amounted to 22 ± 1.18 µM in experiment [2] and 38.6 ± 3.56 µM in experiment [3].

Take `COc1cc(C2Nc3ccc(C(=O)c4ccccc4)cc3NC3=C2C(=O)CCC3)ccc1O` (centres unmarked) [4r]: the EC50 in experiment [1] (setting [6]) is 12.8 ± 1.9 µM; in experiment [1] (setting [7]), 7.49 ± 1.65 µM. Moreover, the Kd in experiment [2] was 33.1 ± 1.4 µM; in experiment [3] it was 46 ± 8.33 µM.

For `O=C1CCCC2=C1C(c1ccc(O)c(O)c1)Nc1ccc(C(=O)c3ccccc3)cc1N2` (centres unmarked) [4p], the values for the EC50 in experiment [1] (setting [4]) and in experiment [1] (setting [5]) were 9.5 ± 4.73 µM and 6.92 ± 2.43 µM, respectively. Also, the Kd in experiment [2] came to 15.9 ± 5.2 µM; in experiment [3], 26.9 ± 4.3 µM.

Take `COc1ccc(C2Nc3ccc(C(=O)c4ccccc4)cc3NC3=C2C(=O)CCC3)cc1OC` (centres unmarked) [4o]: the results for the EC50 in experiment [1] (setting [4]) and in experiment [1] (setting [5]) were 15.4 ± 6.86 µM and 13.5 ± 4.67 µM, respectively. For the same compound, the Kd came out at 7.5 ± 2.9 µM in experiment [2] and 12 ± 2.4 µM in experiment [3].

As for `COc1cccc(C2Nc3ccc(C(=O)c4ccccc4)cc3NC3=C2C(=O)CCC3)c1O` (centres unmarked) [4t], the EC50 result in experiment [1] (MDA-MB-231, single agent) is on record as “without activity”. In addition, the Kd in experiment [2] and in experiment [3] was more than 50 µM in each case.

Take `O=C1CCCC2=C1C(c1ccc3c(c1)OC(F)(F)O3)Nc1ccc(C(=O)c3ccccc3)cc1N2` (centres unmarked) [4q]: the figures for the EC50 in experiment [1] (setting [6]) and in experiment [1] (setting [7]) were 14 ± 2.4 µM and 14.7 ± 4.98 µM, respectively. Also, the Kd in experiment [2] came out at 41.8 ± 11.7 µM; in experiment [3], 16.4 ± 2.9 µM.

Turning to `Nc1cccc(C2Nc3ccc(C(=O)c4ccccc4)cc3NC3=C2C(=O)CCC3)c1` (centres unmarked) [4n], the EC50 entry in experiment [1] (MDA-MB-231, single agent) is listed as “loss of activity”. The results for the Kd in experiment [2] and in experiment [3] were 38.1 ± 1.68 µM and 26.5 ± 1.07 µM, respectively.

As to `COc1cccc(C2Nc3ccc(C(=O)c4ccccc4)cc3NC3=C2C(=O)CCC3)c1` (centres unmarked) [4k], the EC50 in experiment [1] (setting [4]) stood at 13 ± 4.15 µM; in experiment [1] (setting [5]) it was 10.3 ± 4.63 µM. In addition, the Kd in experiment [2] (setting [8]) and in experiment [3] (setting [9]) was more than 50 µM in each case.

In the case of `CC1(C)CC(=O)C2=C(C1)Nc1cc(C(=O)c3ccccc3)ccc1NC2c1c[nH]c2ccccc12` (centres unmarked) [4a, 7-benzoyl-11-(1H-indol-3-yl)-3,3-dimethyl-2,3,4,5,10,11-hexahydro-1H-dibenzo[b,e][1,4]diazepin-1-one], the half-maximal effective concentration (EC50) turned out to be 16.9 ± 7.14 µM in experiment [1] (setting [4]) and 42.8 ± 10.1 µM in experiment [1] (setting [5]). Moreover, the Kd in experiment [2] was found to be 6.8 ± 1.3 µM; in experiment [3] it was 1.3 ± 0.7 µM.

As to `O=C1CCCC2=C1C(c1ccc(O)c([N+](=O)[O-])c1)Nc1ccc(C(=O)c3ccccc3)cc1N2` (centres unmarked) [4u], the EC50 in experiment [1] (setting [6]) was found to be 9.53 ± 3.61 µM; in experiment [1] (setting [7]), 17 ± 5.4 µM. In addition, the Kd in experiment [2] (setting [8]) was 37.3 ± 4.45 µM; in experiment [3] (setting [9]) it was more than 50 µM.

Regarding `O=C1CCCC2=C1C(c1ccc(C(F)(F)F)cc1)Nc1ccc(C(=O)c3ccccc3)cc1N2` (centres unmarked) [4h], the EC50 in experiment [1] (setting [4]) came out at 48.8 ± 5.72 µM; in experiment [1] (setting [5]), 22.3 ± 8.67 µM. The results for the Kd in experiment [2] and in experiment [3] were 14.9 ± 3.8 µM and 43.4 ± 13.9 µM, respectively.

`COc1ccc(C2Nc3ccc(C(=O)c4ccccc4)cc3NC3=C2C(=O)CCC3)cc1O` (centres unmarked) [4s]: the EC50 in experiment [1] (setting [6]) came out at 14.6 ± 1.74 µM; in experiment [1] (setting [7]), 15.2 ± 3.63 µM. The Kd in experiment [2] and in experiment [3] was more than 50 µM throughout.

For `COc1cc(C2Nc3ccc(C(=O)c4ccccc4)cc3NC3=C2C(=O)CCC3)cc([N+](=O)[O-])c1O` (centres unmarked) [4v], the EC50 is 26.8 ± 12.5 µM in experiment [1] (setting [6]) and 31.4 ± 11.4 µM in experiment [1] (setting [7]). Moreover, the Kd in experiment [2] turned out to be 46.4 ± 5.31 µM; in experiment [3] it was 38 ± 2.78 µM.

`Cc1ccc(C2Nc3ccc(C(=O)c4ccccc4)cc3NC3=C2C(=O)CCC3)o1` (centres unmarked) [4c, 7-benzoyl-11-(5-methylfuran-2-yl)-2,3,4,5,10,11-hexahydro-1H-dibenzo[b,e][1,4]diazepin-1-one]: the concentration for a half-maximal effect (EC50) in experiment [1] (setting [4]) was 45.3 ± 3.75 µM; in experiment [1] (setting [5]), 65 µM; in experiment [1] (MDA-MB-231, single agent, read-out: EC50), 65.1 ± 2.43 µM. Also, the Kd in experiment [2] and in experiment [3] was more than 50 µM in each case.

Turning to `O=C1CCCC2=C1C(c1ccccc1)Nc1ccc(C(=O)c3ccccc3)cc1N2` (centres unmarked) [4d, 7-benzoyl-11-phenyl-2,3,4,5,10,11-hexahydro-1H-dibenzo[b,e][1,4]diazepin-1-one], the EC50 in experiment [1] (setting [4]) was 69.2 ± 8.1 µM; in experiment [1] (setting [5]) it was 19.6 ± 4.23 µM. Moreover, the Kd was determined as 4.4 ± 2.2 µM in experiment [2] and 21.9 ± 6.2 µM in experiment [3].

Take `COc1ccc(C2Nc3ccc(C(=O)c4ccccc4)cc3NC3=C2C(=O)CCC3)cc1` (centres unmarked) [4g]: the EC50 worked out at 36.3 ± 10.4 µM in experiment [1] (setting [4]) and 67.2 ± 7.6 µM in experiment [1] (setting [5]). For the same compound, the Kd in experiment [2] was 18 ± 5.4 µM.

As to `Cc1ccc(C2Nc3ccc(C(=O)c4ccccc4)cc3NC3=C2C(=O)CCC3)cc1` (centres unmarked) [4e, 7-benzoyl-11-(p-tolyl)-2,3,4,5,10,11-hexahydro-1H-dibenzo[b,e][1,4]diazepin-1-one], the figures for the EC50 in experiment [1] (setting [4]) and in experiment [1] (setting [5]) were 47.9 ± 9.7 µM and 38.9 ± 7.55 µM, respectively. The Kd in experiment [2] was more than 50 µM; in experiment [3] it was 27.6 ± 7.3 µM.

Turning to `O=C1CCCC2=C1C(c1ccc(O)cc1)Nc1ccc(C(=O)c3ccccc3)cc1N2` (centres unmarked) [4j], the EC50 in experiment [1] (setting [4]) came to 59.7 ± 14.8 µM; in experiment [1] (setting [5]), 48.2 ± 15.1 µM. Further, the Kd came out at 7.26 ± 0.98 µM in experiment [2] (setting [8]) and 27.6 ± 3.16 µM in experiment [3] (setting [9]).

In the case of `O=C1CCCC2=C1C(c1cccs1)Nc1ccc(C(=O)c3ccccc3)cc1N2` (centres unmarked) [4b, 7-benzoyl-11-(thiophen-2-yl)-2,3,4,5,10,11-hexahydro-1H-dibenzo[b,e][1,4]diazepin-1-one], the EC50 was determined as 9.2 ± 5.75 µM in experiment [1] (setting [4]) and 21.9 ± 8.17 µM in experiment [1] (setting [5]). In addition, the Kd came to 30 ± 7.47 µM in experiment [2] and 46.3 ± 24.8 µM in experiment [3].
